Conditions: Gas, Burnett expansion method

CCF [fluoroethane]
Conditions	mass density [kg/m3]
278.38 K, 201.28 kPa	4.281
278.38 K, 432.22 kPa	9.679
278.39 K, 297.17 kPa	6.437
283.26 K, 303.56 kPa	6.463
283.26 K, 442.81 kPa	9.718
283.27 K, 205.41 kPa	4.298
288.2 K, 209.64 kPa	4.316
288.21 K, 309.96 kPa	6.489
288.21 K, 452.92 kPa	9.758
293.09 K, 213.69 kPa	4.313
293.09 K, 316.32 kPa	6.485
293.1 K, 143.41 kPa	2.868
293.1 K, 462.98 kPa	9.751
298.65 K, 323.48 kPa	6.515
298.65 K, 682.94 kPa	14.731
298.66 K, 146.61 kPa	2.881
298.66 K, 218.72 kPa	4.333
298.66 K, 474.3 kPa	9.797
303.31 K, 149.42 kPa	2.894
303.31 K, 222.77 kPa	4.351
303.31 K, 329.55 kPa	6.543
303.31 K, 697.8 kPa	14.795
303.32 K, 483.63 kPa	9.838
308.96 K, 227.65 kPa	4.351
308.96 K, 336.88 kPa	6.542
308.97 K, 494.66 kPa	9.837
308.97 K, 715.6 kPa	14.793
308.98 K, 152.32 kPa	2.893
313.8 K, 155.2 kPa	2.907
313.8 K, 343.12 kPa	6.572
313.8 K, 1036.8 kPa	22.346
313.81 K, 231.58 kPa	4.371
313.81 K, 504.31 kPa	9.882
313.81 K, 730.5 kPa	14.86
318.66 K, 513.87 kPa	9.903
318.67 K, 158.08 kPa	2.912
318.67 K, 235.35 kPa	4.379
318.67 K, 349.39 kPa	6.585
318.67 K, 745.44 kPa	14.89
318.67 K, 1060.9 kPa	22.39
323.51 K, 355.59 kPa	6.601
323.51 K, 760.32 kPa	14.926
323.51 K, 1084.6 kPa	22.444
323.52 K, 160.85 kPa	2.919
323.52 K, 239.62 kPa	4.39
323.52 K, 523.39 kPa	9.926
328.42 K, 243.93 kPa	4.403
328.42 K, 532.98 kPa	9.955
328.42 K, 775.13 kPa	14.969
328.42 K, 1108.3 kPa	22.509
328.42 K, 1539.5 kPa	33.847
328.43 K, 163.8 kPa	2.928
328.43 K, 361.91 kPa	6.62
333.29 K, 541.96 kPa	9.995
333.3 K, 248.18 kPa	4.42
333.3 K, 368.16 kPa	6.647
333.3 K, 789.86 kPa	15.029
333.3 K, 1131.5 kPa	22.599
333.31 K, 166.7 kPa	2.94
338.15 K, 252.41 kPa	4.426
338.15 K, 374.3 kPa	6.655
338.15 K, 551.38 kPa	10.008
338.15 K, 1614.5 kPa	34.027
338.16 K, 169.6 kPa	2.943
338.16 K, 804.44 kPa	15.048
338.16 K, 1154.5 kPa	22.629
343.01 K, 256.69 kPa	4.428
343.01 K, 380.56 kPa	6.659
343.01 K, 818.91 kPa	15.056
343.02 K, 560.82 kPa	10.013
343.02 K, 1177.4 kPa	22.64
343.02 K, 1651.3 kPa	34.043
343.02 K, 2227.5 kPa	51.191
343.03 K, 172.53 kPa	2.945
347.85 K, 175.51 kPa	2.953
347.85 K, 570.22 kPa	10.041
347.85 K, 833.34 kPa	15.099
347.85 K, 1687.6 kPa	34.14
347.85 K, 2287.3 kPa	51.336
347.86 K, 260.96 kPa	4.441
347.86 K, 386.83 kPa	6.677
347.86 K, 1200 kPa	22.704
352.74 K, 265.25 kPa	4.438
352.74 K, 393.24 kPa	6.674
352.74 K, 579.94 kPa	10.036
352.74 K, 1724 kPa	34.121
352.74 K, 2347.1 kPa	51.308
352.74 K, 3018.7 kPa	77.15
352.75 K, 178.77 kPa	2.951
352.75 K, 847.82 kPa	15.09
352.75 K, 1222.3 kPa	22.691
358.61 K, 248.43 kPa	4.077
358.61 K, 544.42 kPa	9.219
358.61 K, 1159 kPa	20.845
358.61 K, 1648.3 kPa	31.345
358.61 K, 2274.6 kPa	47.133
358.62 K, 368.4 kPa	6.131
358.62 K, 799.33 kPa	13.862
363.36 K, 252.39 kPa	4.076
363.36 K, 553.08 kPa	9.217
363.36 K, 2325.7 kPa	47.122
363.36 K, 3082.3 kPa	70.859
363.37 K, 374.25 kPa	6.129
363.37 K, 811.8 kPa	13.859
363.37 K, 1178.9 kPa	20.84
363.37 K, 1680 kPa	31.337
368.26 K, 256.54 kPa	4.087
368.26 K, 380.26 kPa	6.145
368.26 K, 561.93 kPa	9.24
368.26 K, 825.1 kPa	13.895
368.26 K, 1199.4 kPa	20.894
368.26 K, 1712.2 kPa	31.418
368.26 K, 2378.2 kPa	47.243
368.27 K, 3165.9 kPa	71.038
373.13 K, 838.52 kPa	13.867
373.14 K, 260.73 kPa	4.078
373.14 K, 386.27 kPa	6.133
373.14 K, 1219.8 kPa	20.851
373.14 K, 1744.1 kPa	31.354
373.14 K, 2430.1 kPa	47.146
373.14 K, 3250.9 kPa	70.894
373.14 K, 4091.8 kPa	106.604
373.15 K, 570.74 kPa	9.221
378.01 K, 264.55 kPa	4.087
378.01 K, 391.92 kPa	6.145
378.01 K, 851.98 kPa	13.896
378.01 K, 1240 kPa	20.895
378.01 K, 1776.1 kPa	31.42
378.01 K, 2481.6 kPa	47.245
378.01 K, 3335.4 kPa	71.042
378.02 K, 579.55 kPa	9.241
378.02 K, 4235.2 kPa	106.825
